Like-named read-outs stand apart in the source and are kept apart here.
How the values were obtained:
[1] = molecular target: T1, c-Met (cytoplasmic domain) (Homo sapiens, UniProt P08581); assay: c-Met Kinase Assay (same methods as for ALK, with modifications); type: biochemical
T1 construct: 10 ng/mL c-Met (cytoplasmic domain, Invitrogen Corporation #PV3143); purchased Invitrogen Corporation PV3143
Procedure, shortened: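 Europium-labeled PT66 antibody (Eu-N1) detects substrate phosphorylation on wells coated with phospholipase C-γ at 10 μg/mL. The kinase, the cytoplasmic domain of c-Met at 10 ng/mL, starts the reaction, which proceeds 15 minutes at 37° C.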

[2] = molecular target: T2, baculovirus-expressed ALK (Homo sapiens, UniProt Q9UM73); assay: ALK Kinase Assay (ELISA-type, time-resolved fluorescence); type: biochemical
T2 construct: host or cells: baculovirus expression system
Procedure, shortened: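 Plates coated with phospholipase C-γ substrate (10 μg/mL in TBS); reaction started with 30 ng/ml ALK and run 15 min at 37° C. Phosphorylated substrate detected with Eu-N1-labeled PT66 antibody. IC50 from sigmoidal variable-slope fit of percent inhibition vs log concentration.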

[3] = c-Met kinase inhibition, 1 μM ATP, read-out: cMet Activity
[4] = ALK kinase inhibition, 1 μM ATP, read-out: ALK Activity
[5] = c-Met kinase inhibition, 1 μM ATP (Km level), read-out: cMet Activity
[6] = ALK kinase inhibition, 1 μM ATP (Km level), read-out: ALK Activity
[7] = 1 μM ATP (Km level), 10 ng/mL c-Met, read-out: cMet Activity (c-Met kinase inhibition, IC50 class)
[8] = 1 μM ATP (Km level), 30 ng/ml ALK, 37° C., 15 minutes, read-out: ALK Activity (ALK kinase inhibition, IC50 class)
[9] = 1 μM ATP (Km level), read-out: cMet Activity (c-Met Kinase Inhibition, IC50)
[10] = 1 μM ATP (Km level), read-out: ALK Activity (ALK Kinase Inhibition, IC50)

T2 sequence (Q9UM73 19-1620): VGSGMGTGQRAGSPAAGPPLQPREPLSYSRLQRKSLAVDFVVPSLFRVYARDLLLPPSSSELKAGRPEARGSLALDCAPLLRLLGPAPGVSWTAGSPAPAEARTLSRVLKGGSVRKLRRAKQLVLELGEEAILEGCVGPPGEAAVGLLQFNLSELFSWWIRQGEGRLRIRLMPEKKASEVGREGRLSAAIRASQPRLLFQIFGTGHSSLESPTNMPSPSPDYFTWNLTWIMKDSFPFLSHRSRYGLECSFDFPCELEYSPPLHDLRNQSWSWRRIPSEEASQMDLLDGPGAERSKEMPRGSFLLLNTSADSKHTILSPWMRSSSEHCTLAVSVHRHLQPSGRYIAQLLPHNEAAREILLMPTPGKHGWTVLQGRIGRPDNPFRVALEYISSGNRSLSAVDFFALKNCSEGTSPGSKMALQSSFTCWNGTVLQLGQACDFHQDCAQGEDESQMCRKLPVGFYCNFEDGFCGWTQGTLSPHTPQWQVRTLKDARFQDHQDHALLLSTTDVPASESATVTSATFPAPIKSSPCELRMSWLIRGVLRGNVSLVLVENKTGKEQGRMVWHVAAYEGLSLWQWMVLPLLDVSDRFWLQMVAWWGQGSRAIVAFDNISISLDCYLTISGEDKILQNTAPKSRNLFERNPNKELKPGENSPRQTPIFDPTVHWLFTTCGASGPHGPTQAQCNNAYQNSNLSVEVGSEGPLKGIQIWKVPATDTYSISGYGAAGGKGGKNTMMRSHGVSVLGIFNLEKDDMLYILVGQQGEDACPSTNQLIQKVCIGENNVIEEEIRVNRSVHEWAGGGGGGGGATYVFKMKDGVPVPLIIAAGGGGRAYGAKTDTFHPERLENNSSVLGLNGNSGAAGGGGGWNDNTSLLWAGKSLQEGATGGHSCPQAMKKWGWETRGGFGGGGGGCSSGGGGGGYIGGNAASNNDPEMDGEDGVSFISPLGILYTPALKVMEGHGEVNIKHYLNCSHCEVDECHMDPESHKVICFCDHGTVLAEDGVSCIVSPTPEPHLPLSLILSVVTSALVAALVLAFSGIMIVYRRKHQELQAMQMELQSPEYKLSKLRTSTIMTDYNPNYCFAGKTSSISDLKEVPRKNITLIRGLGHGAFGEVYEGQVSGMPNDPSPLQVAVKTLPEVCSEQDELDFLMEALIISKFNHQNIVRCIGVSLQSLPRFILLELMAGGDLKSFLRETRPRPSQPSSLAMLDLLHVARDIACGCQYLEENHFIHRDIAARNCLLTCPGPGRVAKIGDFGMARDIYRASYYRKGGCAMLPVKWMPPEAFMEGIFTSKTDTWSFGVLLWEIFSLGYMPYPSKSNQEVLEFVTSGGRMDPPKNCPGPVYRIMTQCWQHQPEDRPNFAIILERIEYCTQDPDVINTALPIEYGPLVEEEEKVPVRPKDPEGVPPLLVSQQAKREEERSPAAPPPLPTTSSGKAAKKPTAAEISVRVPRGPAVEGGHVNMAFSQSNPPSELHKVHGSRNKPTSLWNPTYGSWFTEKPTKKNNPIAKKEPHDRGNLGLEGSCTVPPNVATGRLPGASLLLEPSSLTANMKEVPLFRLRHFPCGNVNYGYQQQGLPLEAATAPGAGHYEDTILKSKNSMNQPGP
T1 sequence (P08581 956-1390 limits assumed): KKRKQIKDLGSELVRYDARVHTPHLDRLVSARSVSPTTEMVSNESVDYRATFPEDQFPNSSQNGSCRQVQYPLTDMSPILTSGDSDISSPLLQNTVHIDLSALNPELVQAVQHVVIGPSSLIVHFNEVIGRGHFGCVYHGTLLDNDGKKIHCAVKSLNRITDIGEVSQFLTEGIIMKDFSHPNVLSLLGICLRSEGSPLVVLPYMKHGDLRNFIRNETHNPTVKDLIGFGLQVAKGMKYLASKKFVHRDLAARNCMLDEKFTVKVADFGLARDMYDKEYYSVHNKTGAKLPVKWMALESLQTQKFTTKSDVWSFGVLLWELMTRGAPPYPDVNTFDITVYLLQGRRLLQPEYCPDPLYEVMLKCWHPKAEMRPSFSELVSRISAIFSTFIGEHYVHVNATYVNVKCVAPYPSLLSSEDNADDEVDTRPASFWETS

With `COc1cc2c(cc1Nc1ncc(Cl)c(Nc3ccccc3S(=O)(=O)N3CC[C@H](O)C3)n1)CCN(C[C@H](C)O)CC2` [Example 1555, (S)-1-(2-{5-Chloro-2-[3-((S)-2-hydroxy-propyl)-8-methoxy-2,3,4,5-tetrahydro-1H-3-benzazepin-7-ylamino]-pyrimidin-4-ylamino}-benzenesulfonyl)-pyrrolidin-3-ol] the IC50 [1, 3] was 0.1 to 1 µM and the IC50 [2, 4] was < 0.1 µM.

For `CCN1C(=O)C(C)(C)CCc2c1ccc(Nc1ncc(Cl)c(N[C@@H]3CCCC[C@H]3NS(C)(=O)=O)n1)c2OC` [Example 143, N-{(1R,2R)-2-[5-Chloro-2-(1-ethyl-6-methoxy-3,3-dimethyl-2-oxo-2,3,4,5-tetrahydro-1H-benzo[b]azepin-7-ylamino)-pyrimidin-4-ylamino]-cyclohexyl}-methanesulfonamide], the IC50 [1, 5] was > 10 µM and the IC50 [2, 6] was < 0.1 µM.

Work on `CCN1CCc2ccc(Nc3ncc(Cl)c(NCCNS(C)(=O)=O)n3)cc2CC1` [Example 298, N-{2-[5-Chloro-2-(3-ethyl-2,3,4,5-tetrahydro-1H-benzo[d]azepin-7-ylamino)-pyrimidin-4-ylamino]-ethyl}-methanesulfonamide] yielded an IC50 [1, 5] of 1 to 10 µM and an IC50 [2, 6] of 0.1 to 1 µM.

In the case of `COc1cc2c(cc1Nc1ncc(Cl)c(Nc3ccccc3S(=O)(=O)N3CCCC3)n1)CCC(NCCO)CC2` (stereo not shown) [Example 1087, 2-(2-{5-Chloro-4-[2-(pyrrolidine-1-sulfonyl)-phenylamino]-pyrimidin-2-ylamino}-3-methoxy-6,7,8,9-tetrahydro-5H-benzocyclohepten-7-ylamino)-ethanol], the IC50 [1, 7] is reported as 1 to 10 µM and the IC50 [2, 8] is reported as < 0.1 µM.

With `Cc1cccnc1-c1ccccc1Nc1nc(Nc2ccc3c(c2)CCC(N2CCOCC2)CC3)ncc1Cl` (stereo not shown) [Example 1020, 5-Chloro-N*4*-[2-(3-methyl-pyridin-2-yl)-phenyl]-N*2*-(7-morpholin-4-yl-6,7,8,9-tetrahydro-5H-benzocyclohepten-2-yl)-pyrimidine-2,4-diamine] the IC50 [1, 7] was 1 to 10 µM and the IC50 [2, 8] was < 0.1 µM.

In the case of `CCN1CC(=O)Nc2cc(Nc3ncc(Cl)c(Nc4ccccc4S(=O)(=O)N(C)C)n3)c(OC)cc2C1` [Example 1659, 2-[5-Chloro-2-(4-ethyl-7-methoxy-2-oxo-2,3,4,5-tetrahydro-1H-benzo[e][1,4]diazepin-8-ylamino)-pyrimidin-4-ylamino]-N,N-dimethyl-benzenesulfonamide], the IC50 [1, 3] is reported as > 10 µM and the IC50 [2, 4] is reported as < 0.1 µM.

`CCOC(=O)N1C2CCC1c1c(ccc(Nc3ncc(Cl)c(Nc4ccccc4C(=O)NC)n3)c1Cl)C2` (stereo not shown) [Example 75, 3-Chloro-4-[5-chloro-4-(2-methylcarbamoyl-phenylamino)-pyrimidin-2-ylamino]-12-aza-tricyclo[7.2.1.0*2,7*]dodeca-2(7),3,5-triene-12-carboxylic acid ethyl ester] was tested, and the IC50 [1, 5] was 1 to 10 µM and the IC50 [2, 6] was < 0.1 µM.

`CCC1C(=O)N(CC)CCc2cc(Nc3ncc(Cl)c(NC4CCCCC4NS(C)(=O)=O)n3)c(OC)cc21` [Example 151, N-{(1R,2R)-2-[5-Chloro-2-(1,3-diethyl-8-methoxy-2-oxo-2,3,4,5-tetrahydro-1H-benzo[d]azepin-7-ylamino)-pyrimidin-4-ylamino]-cyclohexyl-methanesulfonamide] was tested, and the IC50 [1, 5] was > 10 µM and the IC50 [2, 6] was < 0.1 µM.

For `CCN1C(=O)CCCc2c1ccc(Nc1ncc(Cl)c(Nc3ccccc3-n3cccn3)n1)c2OC` [Example 1319, 7-[5-Chloro-4-(2-pyrazol-1-yl-phenylamino)-pyrimidin-2-ylamino]-1-ethyl-6-methoxy-1,3,4,5-tetrahydro-benzo[b]azepin-2-one], the IC50 [1, 7] was > 10 µM and the IC50 [2, 8] was < 0.1 µM.

Molecule `Cc1cccc(C(N)=O)c1Nc1nc(Nc2ccc3c(c2)C(C)(C)CCC(=O)N3)ncc1Cl` [Example 1476, 2-[5-Chloro-2-(5,5-dimethyl-2-oxo-2,3,4,5-tetrahydro-1H-benzo[b]azepin-7-ylamino)-pyrimidin-4-ylamino]-3-methyl-benzamide] has an IC50 [1, 3] of 1 to 10 µM and an IC50 [2, 4] of 0.1 to 1 µM.

`CNC(=O)c1c(Cl)sc(Cl)c1Nc1nc(Nc2ccc3c(c2)CCOC(=O)N3C)ncc1Cl` [Example 1774, 2,5-Dichloro-4-[5-chloro-2-(5-methyl-6-oxo-5,6,8,9-tetrahydro-7-oxa-5-aza-benzocyclohepten-2-ylamino)-pyrimidin-4-ylamino]-thiophene-3-carboxylic acid methylamide] gave an IC50 [1, 3] of 0.1 to 1 µM and an IC50 [2, 4] of 1 to 10 µM.

With `CCN1CC(=O)Nc2cc(Nc3ncc(Cl)c(Nc4ccc(OC)cc4-n4cccn4)n3)c(OC)cc2C1` [Example 1662, 8-[5-Chloro-4-(4-methoxy-2-pyrazol-1-yl-phenylamino)-pyrimidin-2-ylamino]-4-ethyl-7-methoxy-1,3,4,5-tetrahydro-benzo[e][1,4]diazepin-2-one] the IC50 [1, 3] was > 10 µM and the IC50 [2, 4] was < 0.1 µM.

With `CNC(=O)c1ccccc1Nc1nc(Nc2ccc3c(c2OC)CCC(=O)CC3)ncc1Cl` [Example 868, 2-[5-Chloro-2-(1-methoxy-7-oxo-6,7,8,9-tetrahydro-5H-benzocyclohepten-2-ylamino)-pyrimidin-4-ylamino]-N-methyl-benzamide] the IC50 [1, 9] was > 10 µM and the IC50 [2, 10] was < 0.1 µM.

In the case of `COc1cc2c(cc1Nc1ncc(Cl)c(Nc3cc(C(N)=O)ccc3OC)n1)CCN(C(=O)CN(C)C)CC2` [Example 1139, 3-{5-Chloro-2-[3-(2-dimethylamino-acetyl)-8-methoxy-2,3,4,5-tetrahydro-1H-benzo[d]azepin-7-ylamino]-pyrimidin-4-ylamino}-4-methoxy-benzamide], the IC50 [1, 7] is reported as > 10 µM and the IC50 [2, 8] is reported as 1 to 10 µM.

For `C#CCNC(=O)c1cccc(F)c1Nc1nc(Nc2ccc3c(c2)N(C(=O)CN)CCCC3(C)C)ncc1Cl` [Example 1619, 2-{2-[1-(2-Amino-acetyl)-5,5-dimethyl-2,3,4,5-tetrahydro-1H-benzo[b]azepin-8-ylamino]-5-chloro-pyrimidin-4-ylamino}-3-fluoro-N-prop-2-ynyl-benzamide], the IC50 [1, 3] was < 0.1 µM and the IC50 [2, 4] was 0.1 to 1 µM.

For `CCNC(=O)c1cccc(F)c1Nc1nc(Nc2ccc3c(c2)C(C)(C)CCC(=O)N3C)ncc1Cl` [Example 1366, 2-[5-Chloro-2-(1,5,5-trimethyl-2-oxo-2,3,4,5-tetrahydro-1H-benzo[b]azepin-7-ylamino)-pyrimidin-4-ylamino]-N-ethyl-3-fluoro-benzamide], the IC50 [1, 7] was < 0.1 µM and the IC50 [2, 8] was < 0.1 µM.

For `C#CCNC(=O)c1cccc(F)c1Nc1nc(Nc2ccc3c(c2)N(CC)CCCC3(C)C)ncc1Cl` [Example 1633, 2-[5-Chloro-2-(1-ethyl-5,5-dimethyl-2,3,4,5-tetrahydro-1H-benzo[b]azepin-8-ylamino)-pyrimidin-4-ylamino]-3-fluoro-N-prop-2-ynyl-benzamide], the IC50 [1, 3] was 0.1 to 1 µM and the IC50 [2, 4] was 0.1 to 1 µM.

For `CCOCn1ccnc1-c1ccccc1Nc1nc(Nc2ccc3c(c2)CCN(CCOC)CC3)ncc1Cl` [Example 222, 5-Chloro-N*4*-[2-(1-ethoxymethyl-1H-imidazol-2-yl)-phenyl]-N*2*-[3-(2-methoxy-ethyl)-2,3,4,5-tetrahydro-1H-benzo[d]azepin-7-yl]-pyrimidine-2,4-diamine], the IC50 [1, 5] was 1 to 10 µM and the IC50 [2, 6] was < 0.1 µM.

`CNC(=O)c1cccc(F)c1Nc1nc(Nc2ccc3c(c2)N(C(C)=O)CCCC3(C)C)ncc1Cl` [Example 1596, 2-[2-(1-Acetyl-5,5-dimethyl-2,3,4,5-tetrahydro-1H-benzo[b]azepin-8-ylamino)-5-chloro-pyrimidin-4-ylamino]-3-fluoro-N-methyl-benzamide] was tested, and the IC50 [1, 3] was < 0.1 µM and the IC50 [2, 4] was 0.1 to 1 µM.

`CC1(C)CCC(=O)Nc2cc(Nc3ncc(Cl)c(Nc4ccc(N5CCOCC5)cc4OCCC#N)n3)ccc21` [Example 1690, 3-{2-[5-Chloro-2-(5,5-dimethyl-2-oxo-2,3,4,5-tetrahydro-1H-benzo[b]azepin-8-ylamino)-pyrimidin-4-ylamino]-5-morpholin-4-yl-phenoxy}-propionitrile] was tested, and the IC50 [1, 3] was 1 to 10 µM and the IC50 [2, 4] was < 0.1 µM.

In the case of `CCN1C(=O)C(N)CCc2c1ccc(Nc1ncc(Cl)c(Nc3ccccc3S(=O)(=O)C(C)C)n1)c2OC` (stereo not shown) [Example 1337, 3-Amino-7-{5-chloro-4-[2-(propane-2-sulfonyl)-phenylamino]-pyrimidin-2-ylamino}-1-ethyl-6-methoxy-1,3,4,5-tetrahydro-benzo[b]azepin-2-one], the IC50 [1, 7] is reported as > 10 µM and the IC50 [2, 8] is reported as < 0.1 µM.

In the case of `CNC(=O)C1C2C=CC(C2)C1Nc1nc(Nc2ccc3c(c2)CCC(O)CC3)ncc1Cl` (stereo not drawn) [Example 625, (2-exo-3-exo)-3-[5-Chloro-2-(7-hydroxy-6,7,8,9-tetrahydro-5H-benzocyclohepten-2-ylamino)-pyrimidin-4-ylamino]-bicyclo[2.2.1]hept-5-ene-2-carboxylic acid methylamide], the IC50 [1, 9] is reported as 0.1 to 1 µM and the IC50 [2, 10] is reported as < 0.1 µM.

`COCCOc1ccc(Nc2nc(Nc3cc4c(cc3OC)CCN(Cc3nccn3C)CC4)ncc2Cl)c(OC)c1` [Example 1175, 5-Chloro-N*4*-[2-methoxy-4-(2-methoxy-ethoxy)-phenyl]-N*2*-[8-methoxy-3-(1-methyl-1H-imidazol-2-ylmethyl)-2,3,4,5-tetrahydro-1H-benzo[d]azepin-7-yl]-pyrimidine-2,4-diamine] was tested, and the IC50 [1, 7] was > 10 µM and the IC50 [2, 8] was < 0.1 µM.
